Converted amounts (≈) assume the structure as drawn. Read-outs that look alike come from different tables or passages of the source.
How the values were obtained:
Assay in all cases: Calcein AM viability assay, dilution-series retest
Type in all cases: cell-based
BJ-TERT cells = conditions: Homo sapiens, 48 h, read-out: IC50, BJ-TERT
Excerpt: (§1) Described here is work carried out to identify compounds with increased potency or activity in the presence of hTERT, LT, ST, E6, E7 or RAS^V12. Engineered cell lines with these genetic elements were used to screen […] compounds, including 20,000 compounds from a combinatorial library, 1,990 compounds from the National Cancer Institute diversity collection, and 1,540 biologically active known compounds that were selected and purchased by Applicant and formatted into a screenable collection. The primary screen tested (in quadruplicate) the effect of treating tumorigenic BJ-TERT/LT/ST/RAS^V12 engineered tumorigenic cells with each compound for 48 hours at a concentration of 4 μg/mL, corresponding to 10 μM for a compound with a molecular weight of 400, which is the approximate median molecular weight of the libraries. Cell viability was measured using the dye calcein acetoxymethyl ester (calcein AM) (Wang et al., 1993, Hum. Immunol. 3 7, 264-270), which is a non-fluorescent compound that freely diffuses into cells. In live cells, calcein AM is cleaved by intracellular esterases, forming the anionic fluorescent derivative calcein, which cannot diffuse out of live cells. […] The IC50 value (concentration required to inhibit 50% of the calcein AM signal) was calculated for each compound in each cell line (Table 1). […] Following is a more detailed analysis of these nine compounds.
(§2) Calcein acetoxylmethyl ester (AM) is a cell membrane-permeable, non-fluorescent compound that is cleaved by intracellular esterases to form the anionic, cell-impermeable, fluorescent compound calcein. Viable cells are stained by calcein because of the presence of intracellular esterases and because the intact plasma membrane prevents fluorescent calcein from leaking out of cells (Wang et al., 1993, supra). Cells were seeded in 384-well plates using a Zymark Sciclone ALH, treated with each compound in triplicate at 4 μg/mL in the primary screen for two days, washed with phosphate-buffered saline on a Packard Minitrak with a 384-well washer and incubated for four hours with 0.7 μg/mL calcein (Molecular Probes). Total fluorescence intensity in each well was recorded on a Packard Fusion platereader, and converted to a percent inhibition of signal by subtracting the instrument background and dividing by the average signal obtained when cells were not treated with any compound.
(§3) Replica daughter plates were prepared with a Zymark Sciclone ALH and integrated Twister II by diluting stock plates 50 fold in medium lacking serum and pen/strep to obtain a compound concentration in daughter plates of 80 μg/ml with 2% DMSO. Assay plates were prepared by seeding cells in black, clear bottom 384-well plates in columns 1-23 (6000 cells/well in 57 μl) using a syringe bulk dispenser. Columns 3-22 were treated with compounds from a daughter library plate by transferring 3 μl from the daughter library plate using 384-position fixed cannula array. The final compound concentrations in assay plates were thus 4 μg/ml. The assay plates were incubated for 48 hours at 37° C. in humidified incubator containing 5% CO2. Plate processing for the calcein AM viability assay was performed using an integrated Minitrak/Sidetrak robotic system from Packard Bioscience (Perkin Elmer). Assay plates were washed with phosphate buffered saline, and 20 μl of calcein AM (0.7 μg/ml) per well was added. Plates were incubated at room temperature for 4 hours. Fluorescence intensity was determined using a Fusion platereader with filters centered on an excitation of 485 nm and an emission of 535 nm.
(§4) Compounds to be retested were purchased from manufacturers. Stocks were prepared in DMSO at a concentration of 1 mg/ml in 384-well polypropylene plates with a 16-point, two-fold dilution dose curve of each compound in a column, in duplicates. Column 1-2 and 23-24 were left empty for controls. […]

BJ-TERT/LT/RAS^V12 cells = conditions: Homo sapiens, 48 h, read-out: IC50, BJ-TERT/LT/Ras^V12
Excerpt: as §1, §2, §3, §4

[1] = tested on: BJ-TERT/p53DD/CDK4^R24C/D1/ST/RAS^V12 cells; conditions: Homo sapiens, 48 h, read-out: IC50, BJ-TERT/p53DD/CDK4^R24C/cyclineD1/ST/Ras^V12
Excerpt: These engineered tumorigenic cells make use of dominantly acting viral oncoproteins such as LT, ST, E6 and E7. These viral proteins are possibly involved in cell transformation in specific forms of cancer, namely simian virus 40-induced malignant mesothelioma (Testa and Giordano, 2001, Semin Cancer Biol 11, 31-8) and human papillomavirus-induced cervical carcinoma (Bosch et al., 2002, J Clin Pathol 55, 244-65), and have been used to disrupt p53 and pRB function to transform cells in vitro and in vivo (Elenbaas et al., 2001, Genes Dev 15, 50-65; Jorcyk et al., 1998, Prostate 34, 10-22; Perez-Stable et al., 1997, Cancer Res 57, 900-6; Rich et al., 2001, Cancer Res 61, 3556-60; Sandmoller et al., 1995, Cell Growth Differ 6, 97-103). Applicants made use of these two different methods for inactivating cellular proteins, (they tested the effects of both LT and E6/E7-based inactivation of pRB and p53) in order to control for idiosyncratic effects that might be observed with a specific viral protein. The selectivity of these compounds was also confirmed in a cell line expressing dominant negative inhibitors of p53 and pRB that are not derived from viral elements. This cell line expresses (i) a truncated form of p53 (p53DD) that disrupts tetramerization of endogenous p53, (ii) a CDK4^R24C mutant resistant to inhibition by p16^INK4A and p15^INK4B (the major negative regulators of CDK4) and (iii) cyclin D1. The effects of the nine genotype-selective compounds were tested at a range of concentrations in these cells, which are referred to as BJ-TERT/ p53DD/CDK4^R24C/D1/ST/RAS^V12 cells (Table 1). […] However, the overall results of the analysis were unchanged by the use of non-viral proteins in this cell line (Table 1).
as §2, §3
Compounds to be retested were purchased from manufacturers. […]

[2] = BJ-TERT cells, 16-point two-fold dilution, two days
[3] = BJ-TERT/LT/Ras^V12 cells, 16-point two-fold dilution, two days
[4] = BJ-TERT/p53DD/CDK4^R24C/cyclineD1/ST/Ras^V12 cells, 16-point two-fold dilution, two days

| SMILES | IC50 (BJ-TERT cells) [µg/mL] | IC50 (BJ-TERT/LT/RAS^V12 cells) [µg/mL] | IC50 [1] [µg/mL] | IC50 (BJ-TERT cells; [2]) [µg/mL] | IC50 (BJ-TERT/LT/RAS^V12 cells; [3]) [µg/mL] | IC50 [1, 4] [µg/mL] |
| --- | --- | --- | --- | --- | --- | --- |
| COc1ccc(C[C@H]2C(=O)N[C@@H](C)C(=O)N(C)[C@@H]3C(=O)N(C)[C@@H](Cc4ccc(O)c(c4)Oc4ccc(cc4)[C@@H]3O)C(=O)N[C@H](C)C(=O)N[C@@H](C)C(=O)N2C)cc1 [Bouvardin] | 0.078 (≈ 0.101 µM) | 0.078 (≈ 0.101 µM) | 0.156 (≈ 0.202 µM) | – | – | – |
| CC[C@@]1(O)C(=O)OCc2c1cc1n(c2=O)Cc2cc3ccccc3nc2-1 [Camptothecin] | – | – | – | > 5 | 1.25 (≈ 3.59 µM) | 1.25 (≈ 3.59 µM) |
| COc1cccc2c1C(=O)c1c(O)c3c(c(O)c1C2=O)C[C@@](O)(C(C)=O)C[C@@H]3O[C@H]1C[C@H](N)[C@H](O)[C@H](C)O1 [Daunorubicin] | 1.25 (≈ 2.37 µM) | 1.25 (≈ 2.37 µM) | 0.625 (≈ 1.18 µM) | – | – | – |
| COc1cccc2c1C(=O)c1c(O)c3c(c(O)c1C2=O)C[C@@](O)(C(=O)CO)C[C@@H]3O[C@H]1C[C@H](N)[C@H](O)[C@H](C)O1 [Doxorubicin] | – | – | – | 1.25 (≈ 2.3 µM) | 1.25 (≈ 2.3 µM) | 1.25 (≈ 2.3 µM) |
| CS[C@H]1SC[C@H]2C(=O)N(C)[C@@H](C(C)C)C(=O)OC[C@@H](NC(=O)c3cnc4ccccc4n3)C(=O)N[C@@H](C)C(=O)N(C)[C@@H]1C(=O)N(C)[C@@H](C(C)C)C(=O)OC[C@@H](NC(=O)c1cnc3ccccc3n1)C(=O)N[C@@H](C)C(=O)N2C [Echinomycin] | 0.312 (≈ 0.283 µM) | 0.0048 (≈ 0.00436 µM) | 0.078 (≈ 0.0708 µM) | – | – | – |
| CCOc1ccccc1-n1c(C(C)N2CCN(C(=O)COc3ccc(Cl)cc3)CC2)nc2ccccc2c1=O (stereo not drawn) [Erastin] | – | – | – | > 5 | > 5 | 2.5 (≈ 4.57 µM) |
| O=C1c2c(O)ccc(O)c2C(=O)c2c(NCCNCCO)ccc(NCCNCCO)c21 [Mitoxantrone] | – | – | – | 1.25 (≈ 2.81 µM) | 1.25 (≈ 2.81 µM) | 1.25 (≈ 2.81 µM) |
| NC(=O)c1cn([C@@H]2O[C@H](CO)[C@@H](O)[C@H]2O)c2ncnc(N)c12 [Sangivamycin] | 0.039 (≈ 0.126 µM) | 0.078 (≈ 0.252 µM) | 0.078 (≈ 0.252 µM) | – | – | – |
